Consider 21 compounds from patent US11932636B2, “RAD51 inhibitors” (Cyteir Therapeutics, Inc., priority 2019, dated 2024).

This test concerns Daudi cells (AID positive). Kind of test: Compound primary screening: cell death in AID positive Daudi cells (Cell-Titer Glo, Day 7). It counts as cell-based. As to conditions: Homo sapiens, 168 h; Daudi cells, AID positive; cell death on Day 7, Cell-Titer Glo; read-out: Cellular activity in AID + (Daudi). As for the experimental part: Example 149. Compound Primary Screening
AID expressing cells are dependent upon RAD51 for survival; inhibiting RAD51 in AID positive cells results in a cytotoxic effect.
A 96 well u-bottom plate was prepared by writing the experiment number, plate number, date and initials in the top right corner of the plate lid. With a sterile 300 ml reservoir, and 25 ml serological pipette, evaporation buffer media was pipetted into reservoir in 25 ml increments. Using the liquid handler, 150 ul of evaporation buffer media was pipetted from reservoir into rows A and H, and Columns 1 and 12 of the 96 well u-bottom plate. Cell cultures were counted to obtain the density of cells per ml, and the culture viability. The cell density information was used to obtain 1,000,000 cells from culture using a 5 mL serological pipette into an epi tube. The cell density information from the culture was used to calculate the number of cells and volume of media needed for the assay to seed 1250 cells in 130 ul of media per available culture well in the 96 well u-bottom plate. Rows B through F were used for cells (50 wells in total), with row G left for an empty media control. The calculation was overestimated by 10 mL to account for the dead volume in the 300 ml reservoir. Once the media volume was calculated, the appropriate volume of media was pipetted in 25 mL increments into the 250 mL bottle using a 25 mL serological pipette. The 250 ml bottle was capped tightly, and placed into a 37° C. water bath for 2 minutes. While the culture media was warming, 10 mL of fresh media was pipetted from the 500 mL culture media bottle into a sterile 25 mL reservoir. Using the Eppendorf multichannel pipette, 130 ul of media was pipetted from the 25 mL reservoir into row G of the 96 well u-bottom plate. Once the 250 mL bottle of media was warmed, the volume of culture needed was pipetted into the bottle, and mixed gently with a 25 mL serological pipette as to not create bubbles, and then the contents of the bottle were pipetted into a new 300 mL reservoir. Using the liquid handler, 130 ul of culture was pipetted from the 300 mL reservoir into rows B through F of the 96 well u-bottom plate. Once the culture was added, the plate was placed into a 37° C. incubator until the compound master plate was prepared for use.
Two 96 well u-bottom plates were prepared by writing the master plate name in the upper right corner of the plate lid. Labeling one DMSO master and the other Media Master. The compounds of interest were obtained from the laboratory freezer, and placed into a 25 well storage box with a lid, and set the box aside. The compounds were vortexed after thawing but before use. Using an automatic multichannel pipette, 20 ul of 100% DMSO was pipetted into wells B3-B11 through G3-G11 of the DMSO master plate. For each compound on the master plate, 50 ul of the compound were pipetted in the appropriate well of row 2 (reference plate map to determine appropriate well). A serial dilution was prepared beginning by aspirating 20 ul from row 2 and mixing with row 3, repeating until row 11 was reached. Using the liquid handler, 194 ul of Daudi media was dispensed into wells B2-B11 through G2-G11 of the Media master plate. Using the liquid handler, 6 ul from the DMSO master plate was aspirated and dispensed into the media master plate, mixing 100 ul twice.
Compounds from master plate were then added to the culture plate. The culture plates were removed from the incubator, and set inside the biosafety cabinet. Using a liquid handler, 20 ul from wells B2 to B11 through G2 to G11 of master plate were aspirated, and dispensed into wells B2 to B11 through G2 to G11 of culture plate. This set was continued with each culture plate. Once the culture plates acquired their 20 ul of compound dilutions, they were placed back into the incubator, until their reads on Day 7 of experiment.
Cell death was measured on Day 7 of the experiment using Cell-Titer Glo and a Promega Plate reader.
`CC(C)OC(=O)N[C@H]1CC[C@H](c2ncc(-c3ccc(CN)cc3S(=O)(=O)NC(C)(C)C)s2)CC1` [Compound 1, isopropyl (trans-4-(5-(4-(aminomethyl)-2-(N-(tert-butyl)sulfamoyl)phenyl)thiazol-2-yl)cyclohexyl)carbamate]: the EC50 is over 10 µM.
As to `CC(=O)NCc1ccc(-c2cnc([C@H]3CC[C@H](NC(=O)OC(C)C)CC3)s2)c(S(=O)(=O)NC(C)(C)C)c1` [Compound 2, isopropyl (trans-4-(5-(4-(acetamidomethyl)-2-(N-(tert-butyl)sulfamoyl)phenyl)thiazol-2-yl)cyclohexyl)carbamate], the EC50 is over 10 µM.
Then `CC(C)OC(=O)N[C@H]1CC[C@H](c2ncc(-c3ccc(-c4cnn5ccccc45)cc3S(=O)(=O)NC(C)(C)C)s2)CC1` [Compound 3, isopropyl (trans-4-(5-(2-(N-(tert-butyl)sulfamoyl)-4-(pyrazolo[1,5-a]pyridin-3-yl)phenyl)thiazol-2-yl)cyclohexyl)carbamate], with 0.1 to 1 µM.
As for `CC(C)OC(=O)N[C@H]1CC[C@H](c2ncc(-c3ccc(-c4cnn(CC(F)(F)F)c4)cc3S(=O)(=O)NC(C)(C)C)s2)CC1` [Compound 4, isopropyl (trans-4-(5-(2-(N-(tert-butyl)sulfamoyl)-4-(1-(2,2,2-trifluoroethyl)-1H-pyrazol-4-yl)phenyl)thiazol-2-yl)cyclohexyl)carbamate], the EC50 lay in the range of 0.1 to 1 µM.
Turning to `CC(C)OC(=O)N[C@H]1CC[C@H](c2ncc(-c3ccc(-c4cccnc4)cc3S(=O)(=O)NC(C)(C)C)s2)CC1` [Compound 5, isopropyl (trans-4-(5-(2-(N-(tert-butyl)sulfamoyl)-4-(pyridin-3-yl)phenyl)thiazol-2-yl)cyclohexyl)carbamate], the EC50 was in the range of 1 to 10 µM.
As to `CC(C)OC(=O)N[C@H]1CC[C@H](c2ncc(-c3ccc(-c4cc[nH]n4)cc3S(=O)(=O)NC(C)(C)C)s2)CC1` [Compound 6, isopropyl (trans-4-(5-(2-(N-(tert-butyl)sulfamoyl)-4-(1H-pyrazol-3-yl)phenyl)thiazol-2-yl)cyclohexyl)carbamate], the EC50 was 1 to 10 µM.
Take `CC(C)OC(=O)N[C@H]1CC[C@H](c2ncc(-c3ccc(-c4ccc(O)nc4)cc3S(=O)(=O)NC(C)(C)C)s2)CC1` [Compound 7, isopropyl (trans-4-(5-(2-(N-(tert-butyl)sulfamoyl)-4-(6-hydroxypyridin-3-yl)phenyl)thiazol-2-yl)cyclohexyl)carbamate]: the EC50 lay within 1 to 10 µM.
With `COc1ncc(-c2ccc(-c3cnc([C@H]4CC[C@H](NC(=O)OC(C)C)CC4)s3)c(S(=O)(=O)NC(C)(C)C)c2)c(OC)n1` [Compound 8, isopropyl (trans-4-(5-(2-(N-(tert-butyl)sulfamoyl)-4-(2,4-dimethoxypyrimidin-5-yl)phenyl)thiazol-2-yl)cyclohexyl)carbamate], the EC50 lay within 0.1 to 1 µM.
For `CC(C)OC(=O)N[C@H]1CC[C@H](c2ncc(-c3ccc(-c4ccc5c[nH]nc5c4)cc3S(=O)(=O)NC(C)(C)C)s2)CC1` [Compound 9, isopropyl (trans-4-(5-(2-(N-(tert-butyl)sulfamoyl)-4-(2H-indazol-6-yl)phenyl)thiazol-2-yl)cyclohexyl)carbamate], the EC50 lay in the range of 1 to 10 µM.
In the case of `CC(C)OC(=O)N[C@H]1CC[C@H](c2ncc(-c3ccc(-c4cnc(N)nc4)cc3S(=O)(=O)NC(C)(C)C)s2)CC1` [Compound 10, isopropyl (trans-4-(5-(4-(2-aminopyrimidin-5-yl)-2-(N-(tert-butyl)sulfamoyl)phenyl)thiazol-2-yl)cyclohexyl)carbamate], the EC50 is 0.1 to 1 µM.
Regarding `CC(C)OC(=O)N[C@H]1CC[C@H](c2ncc(-c3ccc(-c4ccc5occc5c4)cc3S(=O)(=O)NC(C)(C)C)s2)CC1` [Compound 11, isopropyl (trans-4-(5-(4-(benzofuran-5-yl)-2-(N-(tert-butyl)sulfamoyl)phenyl)thiazol-2-yl)cyclohexyl)carbamate], the EC50 lay within 1 to 10 µM.
Regarding `CC(C)OC(=O)N[C@H]1CC[C@H](c2ncc(-c3ccc(-c4cncnc4)cc3S(=O)(=O)NC(C)(C)C)s2)CC1` [Compound 12, isopropyl (trans-4-(5-(2-(N-(tert-butyl)sulfamoyl)-4-(pyrimidin-5-yl)phenyl)thiazol-2-yl)cyclohexyl)carbamate], the EC50 is over 10 µM.
For the compound `COc1cc(-c2ccc(-c3cnc([C@H]4CC[C@H](NC(=O)OC(C)C)CC4)s3)c(S(=O)(=O)NC(C)(C)C)c2)c(OC)nn1` [Compound 13, isopropyl (trans-4-(5-(2-(N-(tert-butyl)sulfamoyl)-4-(3,6-dimethoxypyridazin-4-yl)phenyl)thiazol-2-yl)cyclohexyl)carbamate], the EC50 was 0.1 to 1 µM.
Consider `Cc1ncc(-c2ccc(-c3cnc([C@H]4CC[C@H](NC(=O)OC(C)C)CC4)s3)c(S(=O)(=O)NC(C)(C)C)c2)s1` [Compound 14, isopropyl (trans-4-(5-(2-(N-(tert-butyl)sulfamoyl)-4-(2-methylthiazol-5-yl)phenyl)thiazol-2-yl)cyclohexyl)carbamate], for which the EC50 was in the range of 1 to 10 µM.
Consider `CC(C)OC(=O)N[C@H]1CC[C@H](c2ncc(-c3ccc(-c4ccc5ncsc5c4)cc3S(=O)(=O)NC(C)(C)C)s2)CC1` [Compound 15, isopropyl (trans-4-(5-(4-(benzo[d]thiazol-6-yl)-2-(N-(tert-butyl)sulfamoyl)phenyl)thiazol-2-yl)cyclohexyl)carbamate], for which the EC50 lay in the range of 1 to 10 µM.
Take `CC(C)OC(=O)N[C@H]1CC[C@H](c2ncc(-c3ccc(-c4cncc(CN(C)C)c4)cc3S(=O)(=O)NC(C)(C)C)s2)CC1` [Compound 16, isopropyl (trans-4-(5-(2-(N-(tert-butyl)sulfamoyl)-4-(5-((dimethylamino)methyl)pyridin-3-yl)phenyl)thiazol-2-yl)cyclohexyl)carbamate]: the EC50 was 1 to 10 µM.
As for `Cc1[nH]ncc1-c1ccc(-c2cnc([C@H]3CC[C@H](NC(=O)OC(C)C)CC3)s2)c(S(=O)(=O)NC(C)(C)C)c1` [Compound 17, isopropyl (trans-4-(5-(2-(N-(tert-butyl)sulfamoyl)-4-(5-methyl-1H-pyrazol-4-yl)phenyl)thiazol-2-yl)cyclohexyl)carbamate], the EC50 was 1 to 10 µM.
In the case of `CC(C)OC(=O)N[C@H]1CC[C@H](c2ncc(-c3ccc(-c4ccc(C#N)nc4)cc3S(=O)(=O)NC(C)(C)C)s2)CC1` [Compound 18, isopropyl (trans-4-(5-(2-(N-(tert-butyl)sulfamoyl)-4-(6-cyanopyridin-3-yl)phenyl)thiazol-2-yl)cyclohexyl)carbamate], the EC50 was in the range of 1 to 10 µM.
As to `CC(C)OC(=O)N[C@H]1CC[C@H](c2ncc(-c3ccc(-c4ccc5nn[nH]c5c4)cc3S(=O)(=O)NC(C)(C)C)s2)CC1` [Compound 19, isopropyl (trans-4-(5-(4-(1H-benzo[d][1,2,3]triazol-6-yl)-2-(N-(tert-butyl)sulfamoyl)phenyl)thiazol-2-yl)cyclohexyl)carbamate], the EC50 is over 10 µM.
Then `CC(C)OC(=O)N[C@H]1CC[C@H](c2ncc(-c3ccc(-c4ccc(CO)nc4)cc3S(=O)(=O)NC(C)(C)C)s2)CC1` [Compound 20, isopropyl (trans-4-(5-(2-(N-(tert-butyl)sulfamoyl)-4-(6-(hydroxymethyl)pyridin-3-yl)phenyl)thiazol-2-yl)cyclohexyl)carbamate], with 1 to 10 µM.
Under `Cc1c[nH]c2cc(-c3ccc(-c4cnc([C@H]5CC[C@H](NC(=O)OC(C)C)CC5)s4)c(S(=O)(=O)NC(C)(C)C)c3)ccc12` [Compound 21, isopropyl (trans-4-(5-(2-(N-(tert-butyl)sulfamoyl)-4-(3-methyl-1H-indol-6-yl)phenyl)thiazol-2-yl)cyclohexyl)carbamate] stands 1 to 10 µM.
